# Measurements taken from patent publication EP2931723B1, “NEW BICYCLIC COMPOUNDS AND THEIR USE AS ANTIBACTERIAL AGENTS AND -LACTAMASE INHIBITORS” (Fedora Pharmaceuticals Inc., priority 2012, dated 2014).
# Tests used:
# Test in all cases: MIC, antibacterial and synergistic activity
# Format in all cases: cell-based
# K. pneumo JMI 2681 = K. pneumo JMI 2681 (Oxa-48 (Cpase))
# K. pneumo JMI 2674 [1] = settings: K. pneumo JMI 2674 (CTX-M15 (ESBL)); substance alone
# E. cloacae JMI 36 = E. cloacae JMI 36 (P99)
# K. pneumo JMI 4088 = K. pneumo JMI 4088 (KPC-3 (Cpase))
# Protocol: (§1) In the Tables 10 - 12, compounds herein disclosed were tested in combination with various antibiotics against metallo β-lactamase producing bacteria. Table 3: Synergy of the inhibitor Ex. 1 (4 µg/mL) in combination with antibiotics
# P. aerug JMI 2686 = P. aerug JMI 2686 (KPC-2 (Cpase))
# Protocol: as §1
# E. coli JMI 10767 [2] = settings: E. coli JMI 10767 (Wt)
# Protocol: as §1
# K. pneumo JMI 2674 [3] = settings: K. pneumo JMI 2674 (CTX-M15 (ESBL))
# Protocol: as §1
# E. coli JMI 2665 = system: E. coli JMI 2665
# Protocol: as §1
# E. coli JMI 2671 = system: E. coli JMI 2671
# Protocol: as §1
# K. pneumo JMI 2699 = K. pneumo JMI 2699 (VIM-1, CTX-M3)
# Protocol: as §1
# K. pneumo JMI 2673 [4] = settings: K. pneumo JMI 2673 (CTX-M14 (ESBL))
# Protocol: as §1
# K.pneumo JMI 4109 [5] = settings: K.pneumo JMI 4109 (SHV-1, SHV-12)
# Protocol: as §1
# E. coli JMI 10770 [6] = settings: E. coli JMI 10770 (CTX-M15 (Hyper ESBL))
# Protocol: as §1
# E. coli JMI 10768 = E. coli JMI 10768 (CTX-M15 (Weak ESBL))
# Protocol: as §1
# K.pneumo JMI 4109 [7] = settings: K.pneumo JMI 4109 (SHV-1, SHV-12); substance alone
# E. coli JMI 10767 [8] = settings: E. coli JMI 10767 (Wt); remark: listed apart in the source
# K. pneumo JMI 2693 = K. pneumo JMI 2693 (NDM-1 (Cpase))
# Protocol: (§2) In the Tables 10 - 12, compounds herein disclosed were tested in combination with various antibiotics against metallo β-lactamase producing bacteria.
# E. coli JMI 2692 = E. coli JMI 2692 (NDM-1, TEM-1, CTX-M-15)
# Protocol: as §2
# K. pneumo JMI 2673 [9] = settings: K. pneumo JMI 2673 (CTX-M14 (ESBL)); substance alone
# E. coli ATCC 25922 = E. coli ATCC 25922 (Wt)
# E. coli JMI 10770 [10] = settings: Escherichia coli, JMI10770; E. coli JMI 10770 (CTX-M15 (Hyper ESBL)); substance alone
# E.coli JMI 4103 = E.coli JMI 4103 (KPC-2, Tem-1, CMY-Type)
# [11] = Aztreonam + inhibitor at 4 µg/mL
# [12] = Ceftazidime + inhibitor at 4 µg/mL
# [13] = Meropenem + inhibitor at 4 µg/mL
smiles,measurement,setting,value
"O=C(NNC(=O)[C@H]1CC[C@H]2CN1C(=O)N2OS(=O)(=O)O)C1CNC1 (stereo in doubt) [Ex. 9, (2R,5S)-N'-(azetidin-3-ylcarbonyl)-7-oxo-6-(sulfooxy)-1,6-diazabicyclo[3.2.1]octane-2-carbohydrazide]",MIC Aztreonam + inhibitor,K. pneumo JMI 2681; [11],0.25 µg/mL
same,MIC Ceftazidime + inhibitor,K. pneumo JMI 2681; [12],≤0.25 µg/mL
same,MIC Meropenem + inhibitor,K. pneumo JMI 2681; [13],>2 µg/mL
same,MIC,"K. pneumo JMI 2681; substance alone, read-out: MIC",> 16 µg/mL
same,MIC,K. pneumo JMI 2674 [1],> 16 µg/mL
same,MIC Aztreonam + inhibitor,E. cloacae JMI 36; [11],0.25 µg/mL
same,MIC Ceftazidime + inhibitor,E. cloacae JMI 36; [12],≤0.25 µg/mL
same,MIC Meropenem + inhibitor,E. cloacae JMI 36; [13],0.06 µg/mL
same,MIC,"E. cloacae JMI 36; Enterobacter cloacae, JMI36, substance alone, read-out: MIC",> 16 µg/mL
same,MIC Aztreonam + inhibitor,K. pneumo JMI 4088; [11],0.5 µg/mL
same,MIC Ceftazidime + inhibitor,K. pneumo JMI 4088; [12],≤0.25 µg/mL
same,MIC Meropenem + inhibitor,K. pneumo JMI 4088; [13],0.06 µg/mL
same,MIC Aztreonam + inhibitor,P. aerug JMI 2686; [11],>4 µg/mL
same,MIC Ceftazidime + inhibitor,P. aerug JMI 2686; [12],>16 µg/mL
same,MIC Meropenem + inhibitor,P. aerug JMI 2686; [13],>2 µg/mL
same,MIC Aztreonam + inhibitor,E. coli JMI 10767 [2]; [11],≤0.06 µg/mL
same,MIC Ceftazidime + inhibitor,E. coli JMI 10767 [2]; [12],≤0.25 µg/mL
same,MIC Aztreonam + inhibitor,K. pneumo JMI 2674 [3]; [11],0.125 µg/mL
same,MIC Ceftazidime + inhibitor,K. pneumo JMI 2674 [3]; [12],≤0.25 µg/mL
same,MIC Meropenem + inhibitor,K. pneumo JMI 2674 [3]; [13],0.06 µg/mL
same,MIC Aztreonam + inhibitor,"E. coli JMI 2665; E. coli JMI 2665 (CMY-2 (Plasmid Cpase)), Aztreonam + inhibitor at 4 µg/mL",≤0.06 µg/mL
same,MIC Ceftazidime + inhibitor,"E. coli JMI 2665; E. coli JMI 2665 (CMY-2 (Plasmid Cpase)), Ceftazidime + inhibitor at 4 µg/mL",≤0.25 µg/mL
same,MIC Meropenem + inhibitor,"E. coli JMI 2665; E. coli JMI 2665 (CMY-2 (Plasmid Cpase)), Meropenem + inhibitor at 4 µg/mL",≤0.03 µg/mL
same,MIC,"E. coli JMI 2665; Escherichia coli, JMI2665",8 µg/mL
same,MIC Aztreonam + inhibitor,"E. coli JMI 2671; E. coli JMI 2671 (VIM-19 (Cpase)), Aztreonam + inhibitor at 4 µg/mL",≤0.06 µg/mL
same,MIC Ceftazidime + inhibitor,"E. coli JMI 2671; E. coli JMI 2671 (VIM-19 (Cpase)), Ceftazidime + inhibitor at 4 µg/mL",1 µg/mL
same,MIC Meropenem + inhibitor,"E. coli JMI 2671; E. coli JMI 2671 (VIM-19 (Cpase)), Meropenem + inhibitor at 4 µg/mL",0.125 µg/mL
same,MIC,"E. coli JMI 2671; Escherichia coli, JMI2671, E. coli JMI 2671 (VIM-19 (Cpase)), substance alone",> 16 µg/mL
same,MIC Aztreonam + inhibitor,K. pneumo JMI 2699; [11],0.06 µg/mL
same,MIC Ceftazidime + inhibitor,K. pneumo JMI 2699; [12],≤0.25 µg/mL
same,MIC Meropenem + inhibitor,K. pneumo JMI 2699; [13],0.5 µg/mL
same,MIC,"K. pneumo JMI 2699; substance alone, read-out: MIC",> 16 µg/mL
same,MIC Aztreonam + inhibitor,K. pneumo JMI 2673 [4]; [11],≤0.06 µg/mL
same,MIC Ceftazidime + inhibitor,K. pneumo JMI 2673 [4]; [12],≤0.25 µg/mL
same,MIC Meropenem + inhibitor,K. pneumo JMI 2673 [4]; [13],≤0.03 µg/mL
same,MIC Aztreonam + inhibitor,K.pneumo JMI 4109 [5]; [11],≤0.06 µg/mL
same,MIC Ceftazidime + inhibitor,K.pneumo JMI 4109 [5]; [12],≤0.25 µg/mL
same,MIC Meropenem + inhibitor,K.pneumo JMI 4109 [5]; [13],≤0.03 µg/mL
same,MIC Aztreonam + inhibitor,E. coli JMI 10770 [6]; [11],≤0.06 µg/mL
same,MIC Ceftazidime + inhibitor,E. coli JMI 10770 [6]; [12],≤0.25 µg/mL
same,MIC Meropenem + inhibitor,E. coli JMI 10770 [6]; [13],≤0.03 µg/mL
same,MIC Aztreonam + inhibitor,E. coli JMI 10768; [11],≤0.06 µg/mL
same,MIC Ceftazidime + inhibitor,E. coli JMI 10768; [12],≤0.25 µg/mL
same,MIC,"E. coli JMI 10768; Escherichia coli, JMI10768, substance alone",> 16 µg/mL
same,MIC,K.pneumo JMI 4109 [7],4 µg/mL
same,MIC Meropenem + inhibitor,E. coli JMI 10767 [8]; [13],≤0.03 µg/mL
same,MIC,"E. coli JMI 10767 [8]; Escherichia coli, JMI10767, substance alone",> 16 µg/mL
same,MIC Aztreonam + inhibitor,K. pneumo JMI 2693; [11],0.25 µg/mL
same,MIC Ceftazidime + inhibitor,K. pneumo JMI 2693; [12],≤0.25 µg/mL
same,MIC Meropenem + inhibitor,K. pneumo JMI 2693; [13],0.125 µg/mL
same,MIC,K. pneumo JMI 2693; substance alone,> 16 µg/mL
same,MIC Aztreonam + inhibitor,E. coli JMI 2692; [11],1 µg/mL
same,MIC Ceftazidime + inhibitor,E. coli JMI 2692; [12],>16 µg/mL
same,MIC Meropenem + inhibitor,E. coli JMI 2692; [13],0.125 µg/mL
same,MIC,"E. coli JMI 2692; Escherichia coli, JMI2692, substance alone, read-out: MIC",8 µg/mL
same,MIC,K. pneumo JMI 2673 [9],> 16 µg/mL
same,MIC Aztreonam + inhibitor,E. coli ATCC 25922; [11],≤0.06 µg/mL
same,MIC Ceftazidime + inhibitor,E. coli ATCC 25922; [12],≤0.25 µg/mL
same,MIC Meropenem + inhibitor,E. coli ATCC 25922; [13],≤0.03 µg/mL
same,MIC,"E. coli ATCC 25922; Escherichia coli, ATCC25922, substance alone",> 16 µg/mL
same,MIC,E. coli JMI 10770 [10],> 16 µg/mL
same,MIC Aztreonam + inhibitor,E.coli JMI 4103; [11],≤0.06 µg/mL
same,MIC Ceftazidime + inhibitor,E.coli JMI 4103; [12],0.5 µg/mL
same,MIC Meropenem + inhibitor,E.coli JMI 4103; [13],0.06 µg/mL
same,MIC,"E.coli JMI 4103; Escherichia coli, JMI4103, substance alone",16 µg/mL
